Calls of active or inactive are those of the source. No cut-off for these calls is given here.
How the values were obtained:
[1] = test system: THP-1; test: Inhibition of PMA-induced MMP9 transcript level in human THP1 cells at 15 uM preincubated for 2 hrs followed by PMA addition measured after 24 hrs by RT-PCR analysis; assay type: functional, cell-based
[2] = test system: THP-1; test: Inhibition of PMA-induced monocyte to macrophage differentiation in human THP1 cells assessed as reduction in cell adherence at 15 uM preincubated for 2 hrs followed by PMA addition measured after 48 hrs by phase contrast microscopic analysis; assay type: functional, cell-based
[3] = test system: THP-1; test: Inhibition of PMA-induced monocyte to macrophage differentiation in human THP1 cells assessed as reduction in MMP9 enzyme activity at 15 uM preincubated for 2 hrs followed by PMA addition measured after 48 hrs by gelatin zymographic analysis; assay type: functional, cell-based
[4] = test system: THP-1; test: Antiinflammatory activity in human THP1 cells assessed as inhibition of PMA-induced COX2 mRNA level preincubated for 2 hrs followed by PMA addition measured after 48 hrs by RT-PCR analysis; assay type: functional, cell-based
[5] = test system: THP-1; test: Inhibition of PMA-induced monocyte to macrophage differentiation in human THP1 cells assessed as reduction in lysosomal activity at 15 uM preincubated for 2 hrs followed by PMA addition measured after 48 hrs by lysotracker dye-based fluorescence microscopic analysis; assay type: functional, cell-based
[6] = (§1) Antiinflammatory activity in human THP1 cells assessed as inhibition of PMA-induced TNFalpha secretion at 10 uM preincubated for 2 hrs followed by PMA addition measured after 48 hrs by ELISA; assay type: functional; details: THP-1
[7] = Cytotoxicity against human THP1 cells assessed as cell viability at 20 uM after 48 hrs by tryphan blue dye exclusion assay relative to control; assay type: functional; details: THP-1, 48 h, read-out: Activity
[8] = test system: THP-1; test: Inhibition of PMA-induced monocyte to macrophage differentiation in human THP1 cells assessed as reduction in LOX-1 transcript level at 15 uM preincubated for 2 hrs followed by PMA addition measured after 24 hrs by RT-PCR analysis; assay type: functional, cell-based
[9] = test system: THP-1; test: Antiinflammatory activity in human THP1 cells assessed as inhibition of PMA-induced TNFalpha secretion preincubated for 2 hrs followed by PMA addition measured after 48 hrs by ELISA; assay type: functional, cell-based
[10] = test system: THP-1; test: Inhibition of PMA-induced monocyte to macrophage differentiation in human THP1 cells assessed as reduction in CD-36 transcript level at 15 uM preincubated for 2 hrs followed by PMA addition measured after 24 hrs by RT-PCR analysis; assay type: functional, cell-based
[11] = test system: THP-1; test: Inhibition of PMA-induced monocyte to macrophage differentiation in human THP1 cells assessed as reduction in MMP2 enzyme activity at 15 uM preincubated for 2 hrs followed by PMA addition measured after 48 hrs by gelatin zymographic analysis; assay type: functional, cell-based
[12] = test system: THP-1; test: Inhibition of PMA-induced MMP1 transcript level in human THP1 cells at 15 uM preincubated for 2 hrs followed by PMA addition measured after 24 hrs by RT-PCR analysis; assay type: functional, cell-based
[13] = (§2) Antiinflammatory activity in human THP1 cells assessed as inhibition of PMA-induced MCP-1 secretion at 10 uM preincubated for 2 hrs followed by PMA addition measured after 48 hrs by ELISA; assay type: functional; details: THP-1
[14] = test system: THP-1; test: Antiinflammatory activity in human THP1 cells assessed as inhibition of PMA-induced IL-1beta secretion preincubated for 2 hrs followed by PMA addition measured after 48 hrs by ELISA; assay type: functional, cell-based
[15] = Antiinflammatory activity in human THP1 cells assessed as inhibition of PMA-induced IL-1beta secretion at 10 uM preincubated for 2 hrs followed by PMA addition measured after 48 hrs by ELISA; assay type: functional; details: THP-1
[16] = test system: THP-1; test: Inhibition of PMA-induced monocyte/macrophage invasion in human THP1 cells at 15 uM preincubated for 2 hrs followed by PMA addition measured after 48 hrs by collagen-coated Boyden chamber invasion assay; assay type: functional, cell-based
[17] = test system: THP-1; test: Inhibition of PMA-induced monocyte to macrophage differentiation in human THP1 cells assessed as reduction in cell size at 15 uM preincubated for 2 hrs followed by PMA addition measured after 48 hrs by mitotracker dye-based confocal microscopic analysis; assay type: functional
[18] = test system: THP-1; test: Antiinflammatory activity in human THP1 cells assessed as inhibition of PMA-induced MCP-1 secretion preincubated for 2 hrs followed by PMA addition measured after 48 hrs by ELISA; assay type: functional, cell-based
[19] = test system: THP-1; test: Inhibition of PMA-induced monocyte to macrophage differentiation in human THP1 cells assessed as reduction in cell adherence at 20 uM preincubated for 2 hrs followed by PMA addition measured after 48 hrs by phase contrast microscopic analysis; assay type: functional, cell-based
[20] = test system: THP-1; test: as §1; assay type: functional
[21] = test system: THP-1; test: as §2; assay type: functional

Compound	inhibition at 10 µM [6] [%]	viability at 20 µM [7] [%]	inhibition at 10 µM [13] [%]	inhibition at 10 µM [15] [%]	inhibition [20]	further results
Cc1ccc(NC(=O)Cn2cc(/C=C/C(=O)C3=C(O)c4ccccc4S(=O)(=O)N3C)nn2)cc1	84.7	97	87.2	74.9	–	inhibition [1]: Active; inhibition [2]: Active; inhibition [3]: Active; inhibition [4]: Active; inhibition [5]: Active; inhibition [8]: Active; inhibition [9]: Dose-dependent effect; inhibition [10]: Active; inhibition [11]: inactive; inhibition [12]: Active; inhibition [14]: Dose-dependent effect; inhibition [16]: Active; inhibition [17]: Active; inhibition [18]: Dose-dependent effect
CN1C(C(=O)/C=C/c2cn(CC(=O)Nc3cccc(C(F)(F)F)c3)nn2)=C(O)c2ccccc2S1(=O)=O	87.6	96.2	85.1	83.6	–	inhibition [1]: Active; inhibition [2]: Active; inhibition [3]: Active; inhibition [4]: Active; inhibition [5]: Active; inhibition [8]: Active; inhibition [9]: Dose-dependent effect; inhibition [10]: Active; inhibition [11]: inactive; inhibition [12]: Active; inhibition [14]: Dose-dependent effect; inhibition [16]: Active; inhibition [17]: Active; inhibition [18]: Dose-dependent effect
CN1C(C(=O)/C=C/c2cn(-c3ccccc3)nn2)=C(O)c2ccccc2S1(=O)=O	24	94.2	31.9	56.9	–	–
CN1C(C(=O)/C=C/c2cn(CC(=O)Nc3cccc(F)c3)nn2)=C(O)c2ccccc2S1(=O)=O	70.7	96.5	48.2	69.5	–	inhibition [4]: Active; inhibition [9]: Dose-dependent effect; inhibition [19]: inactive; inhibition [14]: Dose-dependent effect; inhibition [18]: Dose-dependent effect
CN1C(C(=O)/C=C/c2cn(-c3cccc(C(F)(F)F)c3)nn2)=C(O)c2ccccc2S1(=O)=O	–	93.8	–	23.9	inactive	inhibition [21]: inactive
CN1C(C(=O)/C=C/c2cn(CC(=O)NC3CCCCC3)nn2)=C(O)c2ccccc2S1(=O)=O	39.7	95.2	56.1	47.7	–	–
CN1C(C(=O)Nc2ccccn2)=C(O)c2ccccc2S1(=O)=O [PIROXICAM]	25.8	–	11.4	21.8	–	–
CN1C(C(=O)/C=C/c2cn(CC(=O)Nc3ccc(F)cc3Br)nn2)=C(O)c2ccccc2S1(=O)=O	59.8	93.6	65.4	63.8	–	–
CN1C(C(=O)/C=C/c2cn(-c3cc([N+](=O)[O-])ccc3Cl)nn2)=C(O)c2ccccc2S1(=O)=O	52.5	94.3	67.1	61.8	–	–
CN1C(C(=O)/C=C/c2cn(CC(=O)Nc3ccc(F)cc3)nn2)=C(O)c2ccccc2S1(=O)=O	73.4	92.5	41.4	42.4	–	–
CN1C(C(=O)/C=C/c2cn(-c3ccc(F)c(Cl)c3)nn2)=C(O)c2ccccc2S1(=O)=O	–	94.3	–	16.3	inactive	inhibition [21]: inactive
CN1C(C(=O)/C=C/c2cn(-c3ccccc3F)nn2)=C(O)c2ccccc2S1(=O)=O	–	96.1	–	40.2	inactive	inhibition [21]: inactive
CN1C(C(=O)/C=C/c2cn(-c3cccc([N+](=O)[O-])c3)nn2)=C(O)c2ccccc2S1(=O)=O	–	92.6	30.7	25.6	inactive	–
CN1C(C(=O)/C=C/c2cn(-c3ccc(F)cc3)nn2)=C(O)c2ccccc2S1(=O)=O	–	95.3	58.9	43.9	inactive	–
COc1ccc(NC(=O)Cn2cc(/C=C/C(=O)C3=C(O)c4ccccc4S(=O)(=O)N3C)nn2)cc1	62.9	94.5	64.8	49.8	–	–
CN1C(C(=O)/C=C/c2cn(CC(=O)Nc3ccc(C(F)(F)F)cc3)nn2)=C(O)c2ccccc2S1(=O)=O	94.2	95.1	81.1	91.1	–	inhibition [4]: Active; inhibition [9]: Dose-dependent effect; inhibition [19]: inactive; inhibition [14]: Dose-dependent effect; inhibition [18]: Dose-dependent effect
CN1C(C(=O)/C=C/c2cn(CC(=O)Nc3ccccc3)nn2)=C(O)c2ccccc2S1(=O)=O	33.3	96.2	76.7	49.3	–	–
CN1C(C(=O)/C=C/c2cn(CC(=O)Nc3ccc(Cl)c(C(F)(F)F)c3)nn2)=C(O)c2ccccc2S1(=O)=O	93.2	94.3	88.4	93.6	–	inhibition [4]: Active; inhibition [9]: Dose-dependent effect; inhibition [19]: inactive; inhibition [14]: Dose-dependent effect; inhibition [18]: Dose-dependent effect
CN1C(C(=O)/C=C/c2cn(-c3cccc(Cl)c3)nn2)=C(O)c2ccccc2S1(=O)=O	–	96	5.4	37.3	inactive	–
CN1C(C(=O)/C=C/c2cn(CC(=O)Nc3c(F)cccc3F)nn2)=C(O)c2ccccc2S1(=O)=O	31.3	95.6	41.3	46.3	–	–
COc1ccc(-n2cc(/C=C/C(=O)C3=C(O)c4ccccc4S(=O)(=O)N3C)nn2)cc1	–	94.4	58.9	53.9	inactive	–
CN1C(C(=O)/C=C/c2cn(-c3ccc(F)cc3F)nn2)=C(O)c2ccccc2S1(=O)=O	11.2	96.2	29.6	47.7	–	–
CN1C(C(=O)/C=C/c2cn(-c3ccccc3Br)nn2)=C(O)c2ccccc2S1(=O)=O	13.7	94.4	16.2	45.9	–	–
CN1C(C(=O)/C=C/c2cn(-c3ccc([N+](=O)[O-])cc3)nn2)=C(O)c2ccccc2S1(=O)=O	–	93	31.5	36.5	inactive	–
Cc1ccc(-c2cc(C(F)(F)F)nn2-c2ccc(S(N)(=O)=O)cc2)cc1 [CELECOXIB]	37.4	–	20.1	31.1	–	–
Cc1ccc(-n2cc(/C=C/C(=O)C3=C(O)c4ccccc4S(=O)(=O)N3C)nn2)cc1	–	94.3	45.2	50.2	inactive	–
CCCCCCCCn1cc(/C=C/C(=O)C2=C(O)c3ccccc3S(=O)(=O)N2C)nn1	2.9	92.3	40.9	64.7	–	–
CN1C(C(=O)/C=C/c2cn(-c3ccc(C(F)(F)F)cc3)nn2)=C(O)c2ccccc2S1(=O)=O	–	96.6	12.7	17.7	inactive	–
COc1cccc(-n2cc(/C=C/C(=O)C3=C(O)c4ccccc4S(=O)(=O)N3C)nn2)c1	–	94.2	–	42.6	inactive	inhibition [21]: inactive

— ChEMBL document CHEMBL3751784, “Synthesis of novel 1-substituted triazole linked 1,2-benzothiazine 1,1-dioxido propenone derivatives as potent anti-inflammatory agents and inhibitors of monocyte-to-macrophage differentiation” (2015)
